Source: ChEMBL document CHEMBL3352513, “Discovery of 3-Arylcoumarin-tetracyclic Tacrine Hybrids as Multifunctional Agents against Parkinson's Disease” (2014)
Calls of active or inactive are those of the source. The calls are words filed in the database; no cut-off is given here.

Experiments:
Caenorhabditis elegans [1] = assay: Antioxidant activity in Caenorhabditis elegans N2 assessed as reduction in ROS generation H2DCFDA dye based fluorescent assay; format: functional
[2] = molecular target: T1, Acetylcholinesterase 1 (Caenorhabditis elegans) (UniProt P38433); assay: Inhibition of AChE in Caenorhabditis elegans assessed as increase in acetylcholine after 48 hrs by Amplex red assay
T1 sequence (whole entry): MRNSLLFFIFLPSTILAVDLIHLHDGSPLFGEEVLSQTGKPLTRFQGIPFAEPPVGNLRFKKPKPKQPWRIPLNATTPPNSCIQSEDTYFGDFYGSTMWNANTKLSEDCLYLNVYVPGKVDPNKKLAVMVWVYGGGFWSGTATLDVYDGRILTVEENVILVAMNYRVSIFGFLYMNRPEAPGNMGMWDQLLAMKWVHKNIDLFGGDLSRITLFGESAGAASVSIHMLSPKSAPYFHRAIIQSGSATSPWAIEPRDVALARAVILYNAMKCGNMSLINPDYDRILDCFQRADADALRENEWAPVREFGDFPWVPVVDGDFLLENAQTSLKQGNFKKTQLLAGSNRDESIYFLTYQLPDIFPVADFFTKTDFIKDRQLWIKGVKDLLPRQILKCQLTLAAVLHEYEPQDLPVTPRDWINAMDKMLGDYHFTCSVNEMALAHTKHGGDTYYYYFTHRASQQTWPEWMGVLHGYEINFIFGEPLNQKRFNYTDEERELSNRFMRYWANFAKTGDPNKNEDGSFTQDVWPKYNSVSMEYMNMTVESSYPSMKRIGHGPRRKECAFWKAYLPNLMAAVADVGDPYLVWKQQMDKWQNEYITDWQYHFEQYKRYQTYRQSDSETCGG

[3] = molecular target: Alpha-synuclein (Homo sapiens) (UniProt P37840); assay: Inhibition of YFP-tagged human alpha-synuclein aggregation expressed in transgenic Caenorhabditis elegans model NL5901 incubated for 48 hrs by fluorescent microscopy relative to untreated control
Caenorhabditis elegans [4] = assay: Increase in DAF16 nuclear localization in GFP expressing Caenorhabditis elegans TJ356 after 48 hrs by fluorescence microscopy; format: functional, organism-based
Caenorhabditis elegans [5] = assay: […] content in Caenorhabditis elegans NL5901 assessed as reduction in response time after 48 hrs nonanol repulsion assay; format: functional
HEK293 [6] = assay: Cytotoxicity against HEK293 cells assessed as inhibition of cell proliferation at 2 mM after 48 hrs by MTT assay; format: functional; details: Homo sapiens, HEK293, 48 h; read-out: GI
HepG2 [7] = assay: Cytotoxicity against human HepG2 cells assessed as inhibition of cell proliferation at 500 uM after 48 hrs by MTT assay; format: functional; details: HepG2, 48 h, read-out: GI
HepG2 [8] = assay: Cytotoxicity against human HepG2 cells assessed as inhibition of cell proliferation at 2 mM after 48 hrs by MTT assay; format: functional; details: HepG2, 48 h, read-out: GI
HEK293 [9] = assay: Cytotoxicity against HEK293 cells assessed as inhibition of cell proliferation at 500 uM after 48 hrs by MTT assay; format: functional; details: Homo sapiens, HEK293, 48 h; read-out: GI
Caenorhabditis elegans [10] = assay: […] content in Caenorhabditis elegans N2 assessed as reduction in response time after 48 hrs nonanol repulsion assay; format: functional

SMILES	fold change (FC) (Caenorhabditis elegans [1])	fold change (FC) [2]	inhibition [3]	inhibition of growth at 2000 µM (HEK293 [6])	inhibition of growth at 500 µM (HepG2 [7])	inhibition of growth at 2000 µM (HepG2 [8])	inhibition of growth at 500 µM (HEK293 [9])	fold change (FC) [3]	also measured
COc1ccc(-c2cc3cc(C4C5=C(CC(C)(C)CC5=O)Oc5nc6c(c(N)c54)CCC6)cc(C(C)C)c3oc2=O)cc1 (racemic)	2.16	1.5	inactive	–	–	–	–	–	–
COc1cc(-c2cc3cc(C4C5=C(CCCC5=O)Oc5nc6c(c(N)c54)CCCC6)cc(C(C)C)c3oc2=O)cc(OC)c1OC (racemic)	1.72	1.2	–	73.8%	26.1%	27.8%	54%	2.6	Activity (Caenorhabditis elegans [4]): Active; fold change (FC) (Caenorhabditis elegans [5]): 1.75; fold change (FC) (Caenorhabditis elegans [10]): 2.6
CCC(C)c1cc(C2C3=C(CCCC3=O)Oc3nc4c(c(N)c32)CCCC4)cc2cc(-c3cc(OC)c(OC)c(OC)c3)c(=O)oc12 (racemic)	1.84	1.15	–	56.9%	8.66%	16.5%	6.5%	2.1	Activity (Caenorhabditis elegans [4]): inactive; fold change (FC) (Caenorhabditis elegans [5]): 1.9; fold change (FC) (Caenorhabditis elegans [10]): 1.8
CCC(C)c1cc(C2C3=C(CC(C)(C)CC3=O)Oc3nc4c(c(N)c32)CCCC4)cc2cc(-c3cc(OC)c(OC)c(OC)c3)c(=O)oc12 (racemic)	–	–	–	–	–	–	–	1.35	inhibition [2]: inactive
CCC(C)c1cc(C2C3=C(CC(C)(C)CC3=O)Oc3nc4c(c(N)c32)CCCC4)cc2cc(-c3ccc(OC)cc3)c(=O)oc12 (racemic)	–	1.51	–	–	–	–	–	2	–
CCC(C)c1cc(C2C3=C(CCCC3=O)Oc3nc4c(c(N)c32)CCC4)cc2cc(-c3cc(OC)c(OC)c(OC)c3)c(=O)oc12 (racemic)	–	1.14	–	–	–	–	–	1.76	–
COc1ccc(-c2cc3cc(C4C5=C(CC(C)(C)CC5=O)Oc5nc6c(c(N)c54)CCC6)cc(C(C)C)c3oc2=O)cc1OC (racemic)	–	1.19	inactive	–	–	–	–	–	–
COc1ccc(-c2cc3cc(C4C5=C(CC(C)(C)CC5=O)Oc5nc6c(c(N)c54)CCCC6)cc(C(C)C)c3oc2=O)cc1 (racemic)	–	1.88	–	–	–	–	–	–	–
COc1ccc(-c2cc3cc(C4C5=C(CC(C)(C)CC5=O)Oc5nc6c(c(N)c54)CCCC6)cc(C(C)C)c3oc2=O)cc1OC (racemic)	–	1.16	inactive	–	–	–	–	–	–
Nc1c2c(nc3ccccc13)CCCC2 [TACRINE]	–	–	–	83%	83.4%	86.9%	72.3%	–	–
